Assay: gradient 5% acetonitrile 3 min, to 50% in 2 min, to 85% in 15 min, held 3 min, 100 µL/min
Conditions: column: Zorbax Extend-C18 2.1 x 50 mm; eluents: water / acetonitrile, 0.1% formic acid
How it was run: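 The system's dead and dwell volumes were 40 μL and 900 μL, with a Zorbax Extend-C18 column (2.1 × 50 mm, 1.8 μm) run at 100 μL/min in water and acetonitrile containing 0.1% formic acid each. Pure standards were analyzed in mixtures of ~100 molecules by HPLC–quadrupole time-of-flight mass spectrometry in positive and negative ionization mode. Retention time was assigned from computationally picked, manually inspected adduct peaks.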

SMILES	RP-LC retention time [s]
Cn1c(C(=O)Nc2ccc(F)cc2Cl)cc2c(=O)oc3ccccc3c21	988
CC(C)Cn1c(=O)c2ccccc2n(Cc2nc(-c3ccccc3Cl)no2)c1=O	1170
Cc1csc(C(=O)N2CC3CC2C(=O)O3)c1 (stereo unspecified)	624
O=C(NCCc1c[nH]c2ccccc12)C(=O)Nc1ccc2c(c1)OCCO2	825
COC(=O)c1nc(NC(=O)Cn2nc3c(cc2=O)CCCCC3)sc1CC(C)C	941
Cc1cccc(-c2noc(-c3sc4ncn(CC(=O)N5CCCC5)c(=O)c4c3C)n2)c1	1020
Brc1ccc(OCc2nnc3sc(-c4ccncc4)nn23)cc1	811
O=C(Cn1c(=O)n(C2CC2)c(=O)c2nscc21)N1CCN(c2ccccc2F)CC1	713
CCN1CCCn2cc(S(=O)(=O)Nc3cc(Cl)ccc3OC)cc2C1=O	794
COc1ccc(CNC(=O)c2c(C)sc3ccn(C)c(=O)c23)c(OC)c1	743
CCC(=O)N1CCc2cc(N3CC(C(=O)Nc4cc(C)ccc4OC)CC3=O)ccc21 (stereo unspecified)	794
O=C(c1ccc(F)cc1)N1CCN(c2cc(-c3cccs3)[nH]n2)CC1	764
Cc1ccc(-c2cc(N3CCOCC3)c3cc(NC(=O)NC4CCCCC4)ccc3n2)cc1	787
Cc1cc(C)cc(NC(=O)c2[nH]c(C)c(S(=O)(=O)N3CCCC3)c2C)c1	950
COc1cccc(N2CCN(C(=O)C3CCN(C(=O)C4Sc5ccccc5NC4=O)CC3)CC2)c1 (stereo unspecified)	709
COc1cc(-c2nnc(SCC(=O)N3CCCC(C)C3)o2)cc(OC)c1OC (stereo unspecified)	889
CCc1ccc(-c2noc(Cn3c(=O)n(-c4ccccc4)c(=O)c4sccc43)n2)cc1	1090
Cc1cc(C)cc(C(=O)Nc2ccc3c(c2)Sc2ncccc2C(=O)N3C)c1	888
COc1ccc(S(=O)(=O)Cc2nc(-c3ccc(Cl)cc3)no2)cc1	1030
Cc1nc2cc(-c3noc(COc4ccc(Cl)cc4C)n3)ccc2o1	1180
CCc1nc(-c2csc(S(=O)(=O)N3CCC(C(=O)NCc4cccs4)CC3)c2)no1	860
CCCCNC(=O)C1CCN(C(=O)c2ncn3c2COC(c2ccc(F)cc2)C3)CC1 (stereo unspecified)	722

SMILES	RP-LC retention time [s]
Cc1ccc(N2CC(c3noc(-c4ccc(C)c(F)c4)n3)CC2=O)cc1 (stereo unspecified)	1100
CN1CCn2cc(S(=O)(=O)Nc3cccc(C#N)c3)cc2C1=O	662
CCC(C)n1c(=O)c2ccccc2n(Cc2nc(-c3ccc(Cl)cc3)no2)c1=O (stereo unspecified)	1280
Cc1oc(-c2ccc(C(=O)NCCCN3CCOCC3)cc2)nc1CSc1ccccc1	685
Cc1cc(C(=O)NCCCN2CCN(c3cc(Cl)ccc3C)CC2)n(-c2ccccc2)n1	726
Cc1noc(C)c1Cc1c(C(=O)NCC23CCC=C2N(C)C(=O)CC3)noc1C (stereo unspecified)	768
CCc1cccc(NC(=O)C2CCN(S(=O)(=O)c3ccc4c(c3)CC(C)N4C(C)=O)CC2)c1 (stereo unspecified)	942
CCOc1ccc2nc(N3CCCC(C(=O)NCCc4ccc(S(N)(=O)=O)cc4)C3)sc2c1 (stereo unspecified)	730
O=C(Nc1ccccc1Br)c1ccc(OC(F)F)cc1	914
N#CCN(c1ccc2c(c1)OCCO2)S(=O)(=O)c1ccc2nncn2c1	690
COc1ccc(Oc2ncc(-c3ccc(C(=O)NC4CC4)cc3)cn2)cc1	774
CC(NC(=O)C1C(=O)NC2(C)CC1c1ccccc1O2)c1ccccc1 (stereo unspecified)	831
Cc1ccc(N2CCN(C(=O)c3cn4ccc(C)cc4n3)CC2)cc1	664
COc1ccc(C2(C(=O)N3CC[C@@H]4CN(Cc5ccccc5)[C@@H]4C3)CC2)cc1	652
O=C1NCCCCCN(C(=O)Nc2ccccc2F)[C@H]2CCCC[C@@H]12	815
CCOc1ccc(NC(=O)c2cc(=O)c3cc(Cl)c(C)cc3o2)c2cccnc12	714
COC(=O)c1ccc(NC(=O)C(=O)NCCOc2ccc(F)cc2)cc1	870
CC(C)=CCN1CCC2(CCc3ccccc32)CC1	775
NC(=O)[C@@H]1C[C@H](Oc2ccccc2)CN1C1CCCC1	584
CCc1noc(-c2ccc(SCC(=O)N3CCCCCC3)nc2)n1	939
Cc1ccc(CNC(=O)CN2C(=O)CCc3cc(S(=O)(=O)N4CCCCC4C)ccc32)cc1 (stereo unspecified)	916
CCc1ccc(CNc2nc3ccncc3n(CC)c2=O)cc1	701

SMILES	RP-LC retention time [s]
O=C(c1c(-c2ccccc2)nnc2ccccc12)N1CCN(c2ccccn2)CC1	605
Cc1nc(Nc2ccccc2)sc1C(=O)Nc1cccc(F)c1	998
COc1ccccc1NC(=O)N1CCCC1c1nncn1C1CCCC1 (stereo unspecified)	697
COc1ccc(CCNC(=O)CSC2=Nc3ccc(C)cc3OC2)cc1OC	750
Cc1ccc2c(=O)c3c([nH]c2c1C)CCN(CC(=O)Nc1ccccc1Cl)C3	640
Cc1cc(C(=O)N2C[C@@H](C)[C@H](c3nc(-c4ccccc4)no3)C2)n[nH]1	804
Cn1cc(S(=O)(=O)N2CCC(C(=O)N3CCOCC3)CC2)cc1C(=O)N1CCCC1	626
CC(C(=O)N1Cc2c(C(=O)NC3CC3)nn(C)c2C1)c1ccccc1 (stereo unspecified)	708
O=C(NCCCN1CCOCC1)c1ccc(-c2c(-c3ccc(F)cc3)ncn2C2CCCC2)o1	590
CCN1CCN(c2cc(C)c3cc(NC(=O)CCC4CCCC4)ccc3n2)CC1	620
Cc1cccc2nnc(N3CCN(C(=O)c4cccc(Cl)c4)CC3)n12	584
COCCCNc1ncc(C(=O)O)c(-c2ccccc2)n1	804
Cc1ccc(Cl)cc1NC(=O)C1CCCN1S(=O)(=O)c1cc2c(cc1C)NC(=O)CO2 (stereo unspecified)	842
COc1ccc(-n2ccn3cc(-c4ccc(F)cc4)nc3c2=O)cc1	790
Cc1cc(C)n(Cc2nc(-c3ccc(NC(=O)Cc4ccc(F)cc4)cc3)oc2C)n1	917
CNC(=O)C1CCCN(S(C)(=O)=O)CCC(=O)NCC1 (stereo unspecified)	539
O=C(CN1CCC(c2nc(-c3cccs3)no2)CC1)Nc1ccccc1C(F)(F)F	753
COc1cc(OC)cc(C(=O)NCC(=O)Nc2nc3ccccc3[nH]2)c1	635
O=C(Cn1ccnc1)N1CCCCC1c1nncn1Cc1ccccc1 (stereo unspecified)	579
O=C(Cc1ccc(NC(=O)c2ccc(F)c(F)c2)cc1)NC1CC1	686
CCCc1noc(-c2ccnc(-n3cnc(C(=O)N4CCCC(C)C4)c3)c2)n1 (stereo unspecified)	944
CC(C)Cn1c(CC2CCN(C(=O)c3n[nH]c4ccccc34)C2)nc2cccnc21 (stereo unspecified)	627

— the METLIN SMRT retention time set (Domingo-Almenara et al. 2019)
